Assay results reported in PubChem BioAssay (NCI).
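Compound exposure: 48 hours, 5 concentrations, 96-well plates. GI50: concentration for 50% inhibition of growth. The concentration for full growth arrest is given as TGI.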

What was measured:
Experiment in all cases: NCI-60 cell line screen, 48 h
[1] = system: U251 CNS
[2] = system: SNB-75 CNS
[3] = system: T-47D breast
[4] = system: HOP-92 NSCLC
[5] = system: DU-145 prostate
[6] = system: COLO 205 colon
[7] = system: OVCAR-5 ovarian
[8] = system: UACC-62 melanoma
[9] = system: CCRF-CEM leukemia
[10] = system: NCI/ADR-RES ovarian
[11] = system: SNB-19 CNS
[12] = system: ACHN renal
[13] = system: MCF7 breast
[14] = system: NCI-H460 lung
[15] = system: MOLT-4 leukemia
[16] = system: A498 renal
[17] = system: CAKI-1 renal
[18] = system: KM12 colon
[19] = system: HT29 colon
[20] = system: 786-0 renal
[21] = system: MALME-3M melanoma
[22] = system: HCT-15 colon
[23] = system: HCT-116 colon
[24] = system: M14 melanoma
[25] = system: SF-268 CNS
[26] = system: RXF 393 renal
[27] = system: A549 NSCLC
[28] = system: SF-295 CNS
[29] = system: OVCAR-4 ovarian
[30] = system: MDA-MB-231 breast
[31] = system: UO-31 renal
[32] = system: HCC-2998 colon
[33] = system: SK-MEL-2 melanoma
[34] = system: OVCAR-3 ovarian
[35] = system: HS 578T breast
[36] = system: NCI-H522 lung
[37] = system: SK-OV-3 ovarian
[38] = system: MDA-MB-435
[39] = system: PC-3 prostate
[40] = system: NCI-H226 lung
[41] = system: SK-MEL-5 melanoma
[42] = system: RPMI-8226 leukemia
[43] = system: EKVX NSCLC
[44] = system: TK-10 renal
[45] = system: SR leukemia
[46] = system: SK-MEL-28 melanoma
[47] = system: OVCAR-8 ovarian
[48] = system: LOX IMVI melanoma
[49] = system: SN12C renal
[50] = system: UACC-257 melanoma
[51] = system: HOP-62 NSCLC
[52] = system: SF-539 CNS
[53] = system: IGROV1 ovarian
[54] = system: SW-620 colon
[55] = system: K-562 leukemia
[56] = system: NCI-H23 lung
[57] = system: BT-549 breast
[58] = system: HL-60(TB) leukemia

## Cc1ccc(-c2c3c(nn2-c2ccc(S(N)(=O)=O)cc2)-c2ccccc2C3)cc1
[1]
  GI50: 19 µM
  TGI: 34.7 µM
[2]
  GI50: 17.5 µM
  TGI: 33.8 µM
[3]
  GI50: 71.3 µM
  TGI: > 100 µM
[4]
  GI50: 13.9 µM
  TGI: 30.6 µM
[5]
  GI50: 15.6 µM
  TGI: 33.1 µM
[6]
  GI50: 23 µM
  TGI: 94.9 µM
[7]
  GI50: 26.1 µM
  TGI: 63.7 µM
[8]
  GI50: 11.3 µM
  TGI: 24.1 µM
[9]
  GI50: 3.56 µM
  TGI: > 100 µM
[10]
  GI50: 23.4 µM
  TGI: 68.7 µM
[11]
  GI50: 37.4 µM
  TGI: > 100 µM
[12]
  GI50: 19.8 µM
  TGI: 35.8 µM
[13]
  GI50: 30.3 µM
  TGI: > 100 µM
[14]
  GI50: 19.1 µM
  TGI: 43.7 µM
[15]
  GI50: 10.8 µM
  TGI: 42.7 µM
[16]
  GI50: 6.07 µM
  TGI: 21 µM
[17]
  GI50: 17.7 µM
  TGI: 32.6 µM
[18]
  GI50: 15.5 µM
  TGI: 43.6 µM
[19]
  GI50: 24.2 µM
  TGI: 95.8 µM
[20]
  GI50: 15.2 µM
  TGI: 31.8 µM
[21]
  GI50: 11.6 µM
  TGI: 26.5 µM
[22]
  GI50: 20.2 µM
  TGI: 42.4 µM
[23]
  GI50: 11 µM
  TGI: 24.2 µM
[24]
  GI50: 19.2 µM
  TGI: 37.6 µM
[25]
  GI50: 20.3 µM
  TGI: 44.7 µM
[26]
  GI50: 17 µM
  TGI: 43.7 µM
[27]
  GI50: 23.4 µM
  TGI: 70.1 µM
[28]
  GI50: 20.7 µM
  TGI: 47.3 µM
[29]
  GI50: 15.4 µM
  TGI: 32.8 µM
[30]
  GI50: 14.5 µM
  TGI: 37.4 µM
[31]
  GI50: 6.52 µM
  TGI: 21.8 µM
[32]
  GI50: 8.54 µM
  TGI: 25.8 µM
[33]
  GI50: 12.2 µM
  TGI: 26.6 µM
[34]
  GI50: 15.6 µM
  TGI: 30 µM
[35]
  GI50: 13.5 µM
  TGI: 36.2 µM
[36]
  GI50: 11.5 µM
  TGI: 27.6 µM
[37]
  GI50: 47.3 µM
  TGI: > 100 µM
[38]
  GI50: 18.2 µM
  TGI: 34.7 µM
[39]
  GI50: 16.1 µM
  TGI: 42.6 µM
[40]
  GI50: 16.5 µM
  TGI: 44 µM
[41]
  GI50: 1.21 µM
  TGI: 5.76 µM
[42]
  GI50: 18.4 µM
  TGI: 60.2 µM
[43]
  GI50: 19.5 µM
  TGI: 51.7 µM
[44]
  GI50: 19.2 µM
  TGI: 38.1 µM
[45]
  GI50: 15.2 µM
  TGI: 60.2 µM
[46]
  GI50: 17.7 µM
  TGI: 33.8 µM
[47]
  GI50: 36.4 µM
  TGI: > 100 µM
[48]
  GI50: 18.2 µM
  TGI: 40.5 µM
[49]
  GI50: 16.9 µM
  TGI: 36.9 µM
[50]
  GI50: 21.9 µM
  TGI: 40.3 µM
[51]
  GI50: 20.6 µM
  TGI: 36.1 µM
[52]
  GI50: 18.3 µM
  TGI: 33.3 µM
[53]
  GI50: 3.27 µM
  TGI: 16 µM
[54]
  GI50: 4.4 µM
  TGI: 17 µM
[55]
  GI50: 16.2 µM
  TGI: 53.9 µM
[56]
  GI50: 22.3 µM
  TGI: 45.2 µM

## COc1cc2c(cc1OC)C(Sc1ccc(SC)cc1)c1c(nc(N)c(C#N)c1N)O2 (stereo not given)
[1]
  GI50: 1.37 µM
  TGI: 2.66 µM
[2]
  GI50: 1.54 µM
  TGI: 3.16 µM
[3]
  GI50: 1.62 µM
  TGI: 4.26 µM
[4]
  GI50: 1.96 µM
  TGI: 3.86 µM
[5]
  GI50: 1.75 µM
  TGI: 3.17 µM
[6]
  GI50: 1.71 µM
  TGI: 3.41 µM
[7]
  GI50: 1.87 µM
  TGI: 3.5 µM
[8]
  GI50: 1.23 µM
  TGI: 2.51 µM
[9]
  GI50: 0.571 µM
  TGI: 4.28 µM
[11]
  GI50: 1.45 µM
  TGI: 2.8 µM
[12]
  GI50: 1.69 µM
  TGI: 3.06 µM
[13]
  GI50: 1.1 µM
  TGI: 3.54 µM
[14]
  GI50: 2.08 µM
  TGI: 4.49 µM
[15]
  GI50: 1.07 µM
  TGI: 4.08 µM
[16]
  GI50: 1.61 µM
  TGI: 3.28 µM
[18]
  GI50: 1.81 µM
  TGI: 3.46 µM
[20]
  GI50: 1.53 µM
  TGI: 2.85 µM
[21]
  GI50: 1.85 µM
  TGI: 3.35 µM
[22]
  GI50: 1.44 µM
  TGI: 2.91 µM
[23]
  GI50: 1.62 µM
  TGI: 3.01 µM
[24]
  GI50: 1.74 µM
  TGI: 3.24 µM
[25]
  GI50: 1.6 µM
  TGI: 3.1 µM
[26]
  GI50: 1.25 µM
  TGI: 2.52 µM
[57]
  GI50: 1.38 µM
  TGI: 2.67 µM
[27]
  GI50: 2.05 µM
  TGI: 3.68 µM
[28]
  GI50: 1.63 µM
  TGI: 3.01 µM
[29]
  GI50: 1.64 µM
  TGI: 3.27 µM
[30]
  GI50: 1.55 µM
  TGI: 2.92 µM
[31]
  GI50: 1.33 µM
  TGI: 2.6 µM
[58]
  GI50: 1.51 µM
  TGI: 3.59 µM
[32]
  GI50: 1.8 µM
  TGI: 3.28 µM
[33]
  GI50: 1.48 µM
  TGI: 2.9 µM
[34]
  GI50: 1.62 µM
  TGI: 3.06 µM
[35]
  GI50: 2.01 µM
  TGI: 4.52 µM
[36]
  GI50: 1.64 µM
  TGI: 3.03 µM
[37]
  GI50: 1.88 µM
  TGI: 3.31 µM
[38]
  GI50: 1.75 µM
  TGI: 3.23 µM
[39]
  GI50: 1.63 µM
  TGI: 3.06 µM
[40]
  GI50: 1.64 µM
  TGI: 3.04 µM
[41]
  GI50: 1.69 µM
  TGI: 3.07 µM
[42]
  GI50: 2.54 µM
  TGI: 6.46 µM
[43]
  GI50: 1.78 µM
  TGI: 3.32 µM
[44]
  GI50: 1.6 µM
  TGI: 2.95 µM
[45]
  GI50: 0.354 µM
  TGI: 2.35 µM
[46]
  GI50: 1.72 µM
  TGI: 3.22 µM
[47]
  GI50: 1.93 µM
  TGI: 3.47 µM
[48]
  GI50: 1.28 µM
  TGI: 2.55 µM
[50]
  GI50: 2.07 µM
  TGI: 3.51 µM
[51]
  GI50: 1.78 µM
  TGI: 3.26 µM
[52]
  GI50: 1.55 µM
  TGI: 2.88 µM
[53]
  GI50: 1.23 µM
  TGI: 3.24 µM
[54]
  GI50: 1.92 µM
  TGI: 3.97 µM
[55]
  GI50: 1.74 µM
  TGI: 5.59 µM
[56]
  GI50: 1.78 µM
  TGI: 3.55 µM
